Drawing on PubChem BioAssay AID256 (DTP/NCI, 2004), this text covers T/C for 21 molecules.

Several values for one entry are separate records, joined by “and”; a condition that tells them apart may be missing. Equal entries are not always repeated. Inconclusive results and toxic doses are left out.

This test has as its system CD2F1 mice, L1210 leukemia ip, survival T/C. The experiment in a line: NCI In Vivo Anticancer Drug Screen. Data for tumor model L1210 Leukemia (intraperitoneal) in CD2F1 (CDF1) mice. To be noted: higher = longer survival. The method in brief: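 Antitumor effect is scored in animals hosting a serially transplanted tumor. Values compare compound-dosed animals against vehicle-only controls as a simple quotient.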

Where [1] appears, read: endpoint: mean survival time, dose: 100.0 mg/kg/injection, schedule: Q01DX009 (ip), vehicle: saline with Tween-80.
[2] abbreviates: endpoint: mean survival time, dose: 100.0 mg/kg/injection, schedule: Q04DX003 (ip), vehicle: saline with Tween-80.
[3] abbreviates: endpoint: mean survival time, dose: 200.0 mg/kg/injection, schedule: Q01DX009 (ip), vehicle: saline with Tween-80.
Where [4] appears, read: endpoint: mean survival time, dose: 200.0 mg/kg/injection, schedule: Q04DX003 (ip), vehicle: saline with Tween-80.
Where [5] appears, read: endpoint: mean survival time, dose: 400.0 mg/kg/injection, schedule: Q01DX009 (ip), vehicle: saline with Tween-80.
Setting [6] is: endpoint: mean survival time, dose: 100.0 mg/kg/injection, schedule: Q04DX002 (ip), vehicle: saline with Tween-80.
[7] abbreviates: endpoint: mean survival time, dose: 400.0 mg/kg/injection, schedule: Q04DX002 (ip), vehicle: saline with Tween-80.
Where [8] appears, read: endpoint: mean survival time, dose: 50.0 mg/kg/injection, schedule: Q04DX003 (ip), vehicle: saline.
[9] abbreviates: endpoint: mean survival time, dose: 100.0 mg/kg/injection, schedule: Q04DX003 (ip), vehicle: saline.

As for `CCCCCCCCCCCCCCCCCCCCCC(=O)OC`, the T/C under setting [1] is 102 % of control; the T/C under setting [2] was 89 % of control; the T/C under setting [3] was 103 % of control; the T/C under setting [4] is 90 % of control; the T/C under setting [5] was 100 % of control; the T/C (endpoint: mean survival time, dose: 400.0 mg/kg/injection, schedule: Q04DX003 (ip), vehicle: saline with Tween-80) was 87 % of control.

On to `Cc1ccc(S(=O)(=O)N/N=C/Cc2c(C(C)C)cc(C(C)C)cc2C(C)C)cc1`, for which the T/C was 100 % of control (endpoint: median survival time, dose: 50.0 mg/kg/injection, schedule: Q04DX002 (ip), vehicle: saline with Tween-80); 100 % of control (endpoint: median survival time, dose: 100.0 mg/kg/injection, schedule: Q04DX002 (ip), vehicle: saline with Tween-80); 110 % of control (endpoint: median survival time, dose: 200.0 mg/kg/injection, schedule: Q04DX002 (ip), vehicle: saline with Tween-80); 100 % of control (endpoint: median survival time, dose: 400.0 mg/kg/injection, schedule: Q04DX002 (ip), vehicle: saline with Tween-80).

As for `CCCCCC(=O)N1CCCC1`, the T/C under setting [2] is 98 % of control and the T/C under setting [4] was 98 % of control.

Regarding `CCCCCCCCCCCCCCC(=O)O.[Pb]`, the T/C (endpoint: mean survival time, dose: 75.0 mg/kg/injection, schedule: Q01DX001 (ip), vehicle: other) is 103 % of control; the T/C (endpoint: mean survival time, dose: 150.0 mg/kg/injection, schedule: Q01DX001 (ip), vehicle: other) was 103 % of control; the T/C (endpoint: mean survival time, dose: 300.0 mg/kg/injection, schedule: Q01DX001 (ip), vehicle: other) is 98 % of control.

Take `COCc1nnc(N)c(C(N)=O)n1`: the T/C runs as follows: (endpoint: mean survival time, dose: 100.0 mg/kg/injection, schedule: Q01DX001 (ip), vehicle: carboxymethylcellulose (CMC)) 100 % of control; (endpoint: mean survival time, dose: 200.0 mg/kg/injection, schedule: Q01DX001 (ip), vehicle: carboxymethylcellulose (CMC)) 100 % of control; (endpoint: mean survival time, dose: 400.0 mg/kg/injection, schedule: Q01DX001 (ip), vehicle: carboxymethylcellulose (CMC)) 89 % of control.

As for `OCCSc1c(Cl)c(Cl)c(Cl)c(Cl)c1Cl`, the T/C (endpoint: mean survival time, dose: 25.0 mg/kg/injection, schedule: Q04DX002 (ip), vehicle: saline with Tween-80) is 98 % of control; the T/C (endpoint: mean survival time, dose: 50.0 mg/kg/injection, schedule: Q04DX002 (ip), vehicle: saline with Tween-80) was 95 % of control; the T/C under setting [6] was 115 % of control; the T/C under setting [7] is 90 % of control.

Regarding `CC1(C)N=C(N)N=C(N)N1c1cccc([N+](=O)[O-])c1`, the T/C under setting [6] was 96 % of control.

Regarding `CC(=NCC(=O)O)c1ccccc1`, the T/C runs as follows: (endpoint: mean survival time, dose: 25.0 mg/kg/injection, schedule: Q04DX003 (ip), vehicle: saline) 93 % of control; under setting [8], 100 % of control; under setting [9], 100 % of control.

As to `NC(=O)COc1ccc(F)cc1`, the T/C under setting [6] is 97 % of control; the T/C (endpoint: mean survival time, dose: 200.0 mg/kg/injection, schedule: Q04DX002 (ip), vehicle: saline with Tween-80) is 90 % of control; the T/C under setting [7] is 101 % of control.

Regarding `COc1ccc(CC(O)CO)cc1OCc1ccccc1` (configuration not stated), the T/C was 95 % of control under setting [1], 96 % of control under setting [3] and 98 % of control under setting [5].

As to `O=C1CC2CCCCN2C2=C1CCCC2` (configuration not stated), the T/C (endpoint: mean survival time, dose: 100.0 mg/kg/injection, schedule: Q04DX003 (ip), vehicle: acetone) was 97 % of control.

For the molecule `COc1ccc(C(N)=O)cc1N=NN(C)C`, the T/C runs as follows: (endpoint: mean survival time, dose: 37.5 mg/kg/injection, schedule: Q01DX009 (ip), vehicle: Klucel (hydroxypropylcellulose) (HPC)) 158 % of control; (endpoint: mean survival time, dose: 75.0 mg/kg/injection, schedule: Q01DX009 (ip), vehicle: Klucel (hydroxypropylcellulose) (HPC)) 109 % of control.

On to `C[N+](C)(C)CCC[n+]1ccc(CCn2ccc3ccccc32)cc1`, for which the T/C (endpoint: mean survival time, dose: 100.0 mg/kg/injection, schedule: Q01DX001 (ip), vehicle: saline) was 124 % of control.

Turning to `CCC(C)(OC(C)=O)C(=O)OC1C(=O)OC2CC3C(C)=CC(O)C(O)C3(C)C3C4(O)OCC23C1C(C)C4O` (configuration not stated), the T/C was 98 % of control (endpoint: mean survival time, dose: 0.25 mg/kg/injection, schedule: Q01DX009 (ip), vehicle: saline + alcohol); 102 % of control (endpoint: mean survival time, dose: 0.5 mg/kg/injection, schedule: Q01DX009 (ip), vehicle: saline + alcohol); 106 % of control (endpoint: mean survival time, dose: 1.0 mg/kg/injection, schedule: Q01DX009 (ip), vehicle: saline + alcohol); 98 % of control (endpoint: mean survival time, dose: 2.0 mg/kg/injection, schedule: Q01DX009 (ip), vehicle: saline + alcohol); 96 % of control (endpoint: mean survival time, dose: 4.0 mg/kg/injection, schedule: Q01DX009 (ip), vehicle: saline + alcohol).

With `CCCCN(Cc1ccccc1)CC(O)C[NH-].CS(C)=O.[Cl-].[Cl-].[Pt+4]` (configuration not stated), the T/C was 100 % of control (endpoint: median survival time, dose: 10.0 mg/kg/injection, schedule: Q04DX003 (ip), vehicle: saline); 110 % of control (endpoint: median survival time, dose: 20.0 mg/kg/injection, schedule: Q04DX003 (ip), vehicle: saline); 108 % of control (endpoint: median survival time, dose: 40.0 mg/kg/injection, schedule: Q04DX003 (ip), vehicle: saline); 103 % of control (endpoint: median survival time, dose: 50.0 mg/kg/injection, schedule: Q04DX003 (ip), vehicle: saline); 109 % of control (endpoint: median survival time, dose: 80.0 mg/kg/injection, schedule: Q04DX003 (ip), vehicle: saline).

As for `COC(=O)Nc1nc2ccc(C3(c4ccc(F)cc4)OCCO3)cc2[nH]1`, the T/C was 96 % of control (endpoint: mean survival time, dose: 1.56 mg/kg/injection, schedule: Q01DX009 (ip), vehicle: saline); 91 % of control (endpoint: mean survival time, dose: 3.12 mg/kg/injection, schedule: Q01DX009 (ip), vehicle: saline); 90 % of control (endpoint: mean survival time, dose: 6.25 mg/kg/injection, schedule: Q01DX009 (ip), vehicle: saline); 104 % of control (endpoint: mean survival time, dose: 12.5 mg/kg/injection, schedule: Q01DX009 (ip), vehicle: saline with Tween-80); 94 % of control and 104 % of control (endpoint: mean survival time, dose: 12.5 mg/kg/injection, schedule: Q01DX009 (ip), vehicle: saline); 106 % of control (endpoint: mean survival time, dose: 25.0 mg/kg/injection, schedule: Q01DX009 (ip), vehicle: saline with Tween-80). The T/C (endpoint: mean survival time, dose: 25.0 mg/kg/injection, schedule: Q01DX009 (ip), vehicle: saline) was 105 % of control; the T/C (endpoint: mean survival time, dose: 40.0 mg/kg/injection, schedule: Q04DX003 (ip), vehicle: saline) was 120 % of control; the T/C under setting [8] is 115 % of control; the T/C (endpoint: mean survival time, dose: 60.0 mg/kg/injection, schedule: Q04DX003 (ip), vehicle: saline) was 151 % of control and 152 % of control; the T/C (endpoint: mean survival time, dose: 80.0 mg/kg/injection, schedule: Q04DX003 (ip), vehicle: saline) was 181 % of control; the T/C under setting [9] is 181 % of control. For the same molecule, the T/C is, setting by setting: (endpoint: mean survival time, dose: 150.0 mg/kg/injection, schedule: Q01DX009 (oral), vehicle: saline) 156 % of control; under setting [3], 87 % of control; (endpoint: mean survival time, dose: 200.0 mg/kg/injection, schedule: Q01DX009 (oral), vehicle: saline) 156 % of control.

Turning to `COc1ccc(OC)c(C2N(Cc3ccc(N(C)C)cc3)CCCN2Cc2ccc(N(C)C)cc2)c1`, the T/C under setting [2] is 90 % of control and the T/C under setting [4] is 87 % of control.

On to `N#CC(C#N)=Cc1ccc(Cl)cc1`, for which the T/C reads like this: (endpoint: mean survival time, dose: 25.0 mg/kg/injection, schedule: Q04DX003 (ip), vehicle: saline with Tween-80) 89 % of control; (endpoint: mean survival time, dose: 50.0 mg/kg/injection, schedule: Q04DX003 (ip), vehicle: saline with Tween-80) 101 % of control; under setting [2], 86 % of control and 98 % of control.

For the molecule `CCCCCCCCCC[n+]1ccc(C#N)cc1`, the T/C is 101 % of control (endpoint: mean survival time, dose: 9.38 mg/kg/injection, schedule: Q01DX001 (ip), vehicle: saline) and 103 % of control (endpoint: mean survival time, dose: 18.75 mg/kg/injection, schedule: Q01DX001 (ip), vehicle: saline).

Take `CCOC(/C=C/c1ccccc1)OCC`: the T/C runs as follows: (endpoint: mean survival time, dose: 100.0 mg/kg/injection, schedule: Q01DX009 (ip), vehicle: saline) 100 % of control; (endpoint: mean survival time, dose: 200.0 mg/kg/injection, schedule: Q01DX009 (ip), vehicle: saline) 94 % of control; (endpoint: mean survival time, dose: 400.0 mg/kg/injection, schedule: Q01DX009 (ip), vehicle: saline) 103 % of control.

As for `NC(=O)c1[nH]cnc1NN=NCCF`, the T/C (endpoint: mean survival time, dose: 25.0 mg/kg/injection, schedule: Q01DX001 (ip), vehicle: Klucel (hydroxypropylcellulose) (HPC)) was 320 % of control.
